ChEMBL document CHEMBL1139585, “A 3D-QSAR model for CYP2D6 inhibition in the aryloxypropanolamine series” (Bioorg Med Chem Lett, 2005)

Target: Cytochrome P450 2D6 (Homo sapiens, UniProt P10635)
Test: Inhibitory activity against recombinant human Cytochrome P450 2D6 (CYP2D6) after incubated for 45 minutes

Chain of Cytochrome P450 2D6 (P10635 whole entry): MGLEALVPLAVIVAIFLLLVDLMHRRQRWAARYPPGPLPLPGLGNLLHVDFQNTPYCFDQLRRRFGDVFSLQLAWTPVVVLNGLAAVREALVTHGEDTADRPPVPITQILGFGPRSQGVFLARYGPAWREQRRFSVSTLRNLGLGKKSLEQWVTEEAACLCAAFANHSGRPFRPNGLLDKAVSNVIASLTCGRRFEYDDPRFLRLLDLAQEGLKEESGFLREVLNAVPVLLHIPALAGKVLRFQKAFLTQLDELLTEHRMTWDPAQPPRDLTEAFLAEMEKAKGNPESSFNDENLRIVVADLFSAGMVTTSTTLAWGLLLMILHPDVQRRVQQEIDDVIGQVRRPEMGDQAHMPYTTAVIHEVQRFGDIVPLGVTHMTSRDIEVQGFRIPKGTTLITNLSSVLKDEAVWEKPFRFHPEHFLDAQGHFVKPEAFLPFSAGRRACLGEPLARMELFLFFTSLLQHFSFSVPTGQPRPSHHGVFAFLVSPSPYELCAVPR

Compound | IC50 [µM]
CC(C)(Cc1c[nH]c2ccccc12)NCC(O)COc1c(C#N)ccc2ccccc12 (stereo unspecified) | 0.05
CC(C)N[C@@H](C)C(O)COc1cccc2ccccc12 (stereo partly specified) | 3.8
COCCc1ccc(OCC(O)CNC(C)(C)CSc2ccccc2C)cc1 (stereo unspecified) | 0.28
CC(C)NC[C@@H](O)COc1ccc(-c2ccccc2)c2ccccc12 | 21
COc1ccc2c(CC(C)(C)NCC(O)COc3ccccc3C#N)c[nH]c2c1 (stereo unspecified) | 0.42
C=CCOc1ccc(OCC(O)CNC(C)C)cc1 (stereo unspecified) | 21
CC(C)(C)NCC(O)COc1ccccc1 (stereo unspecified) | 28
CCc1ccccc1OCC(O)CNC(C)(C)Cc1cc2ccccc2[nH]1 (stereo unspecified) | 0.12
CCc1cccc2cc(CC(O)CNC(C)(C)C)oc12 (stereo unspecified) | 4.8
COc1ccc2[nH]cc(CC(C)(C)NCC(O)COc3ccccc3C#N)c2c1 (stereo unspecified) | 0.05
COc1ccc2c(OCC(O)CNC(C)C)cccc2c1 (stereo unspecified) | 8.4
Cc1ccccc1OCC(O)CNC(C)(C)Cc1cc2ccccc2n1C (stereo unspecified) | 0.09
CC(C)(Cc1csc2ccccc12)NCC(O)COc1ccccc1C#N (stereo unspecified) | 0.05
CC(C)(Cc1c[nH]c2ccc(O)cc12)NCC(O)COc1ccccc1C#N (stereo unspecified) | 0.08
CC(C)NCC(O)COc1ccccc1 (stereo unspecified) | 18
CC(C)NCC(O)COc1ccc(CCOCC2CC2)cc1 (stereo unspecified) [BETAXOLOL] | 66
